According to publication PMC5218480 (PLoS ONE, 2017):

System: MV-4-11 cells
Assay: Gene expression microarray analysis (Affymetrix PrimeView) and GSEA
Assay type: cell-based, human
Design: RFU PODN (11730768_x_at) / Fold change /veh PODN (11730768_x_at) / RFU LINC00158 (11744669_a_at) / Fold change /veh LINC00158 (11744669_a_at) / RFU DUSP10 (11751237_a_at) / Fold change /veh DUSP10 (11751237_a_at) / RFU ID3 (11757404_x_at) / Fold change /veh ID3 (11757404_x_at) / RFU PLEKHG5 (11737974_s_at) / Fold change /veh PLEKHG5 (11737974_s_at) / RFU LRRC4B (11730491_at) / Fold change /veh LRRC4B (11730491_at) / RFU GIMAP4 (11747438_a_at) / Fold change /veh GIMAP4 (11747438_a_at) / RFU KRT8 (11758183_x_at) / Fold change /veh KRT8 (11758183_x_at) / RFU CNN1 (11734310_a_at) / Fold change /veh CNN1 (11734310_a_at) / RFU VPS37D (11726825_at) / Fold change /veh VPS37D (11726825_at) / RFU C10orf10 (11716522_x_at) / Fold change /veh C10orf10 (11716522_x_at) / RFU KIR2DL2 /// KIR2DL4 /// KIR2DL5A /// KIR2DL5B /// KIR2DS1 /// KIR2DS2 /// KIR2DS3 /// KIR2DS4 /// KIR3DL3 /// KIR3DL3 /// KIR3DS1 (11738374_at) / Fold change /veh KIR2DL2 /// KIR2DL4 /// KIR2DL5A /// KIR2DL5B /// KIR2DS1 /// KIR2DS2 /// KIR2DS3 /// KIR2DS4 /// KIR3DL3 /// KIR3DL3 /// KIR3DS1 (11738374_at) / RFU C1QL1 (11718748_at) / Fold change /veh C1QL1 (11718748_at) / RFU TMPRSS4 (11747572_a_at) / Fold change /veh TMPRSS4 (11747572_a_at) / RFU HAMP (11756126_x_at) / Fold change /veh HAMP (11756126_x_at) / RFU RNFT2 (11725882_a_at) / Fold change /veh RNFT2 (11725882_a_at) / RFU NR4A2 (11747474_a_at) / Fold change /veh NR4A2 (11747474_a_at) / RFU ABCC12 (11746883_a_at) / Fold change /veh ABCC12 (11746883_a_at) / RFU TMEM136 (11760407_x_at) / Fold change /veh TMEM136 (11760407_x_at) / RFU CLDN22 /// WWC2 (11732394_at) / Fold change /veh CLDN22 /// WWC2 (11732394_at) / RFU HLA-DPB1 (11760878_x_at) / Fold change /veh HLA-DPB1 (11760878_x_at) / RFU SPINT1 (11716480_a_at) / Fold change /veh SPINT1 (11716480_a_at) / RFU GAP43 (11754022_s_at) / Fold change /veh GAP43 (11754022_s_at) / RFU A4GNT (11735810_at) / Fold change /veh A4GNT (11735810_at) / RFU PRB3 (11715151_x_at) / Fold change /veh PRB3 (11715151_x_at) / RFU TUBB4B (11761932_at) / Fold change /veh TUBB4B (11761932_at) / RFU CAPN14 (11732068_a_at) / Fold change /veh CAPN14 (11732068_a_at) / RFU TMCC2 (11721928_a_at) / Fold change /veh TMCC2 (11721928_a_at) / RFU IRGQ (11745062_a_at) / Fold change /veh IRGQ (11745062_a_at) / RFU FAM174B (11720279_a_at) / Fold change /veh FAM174B (11720279_a_at) / RFU TMPRSS4 (11748680_a_at) / Fold change /veh TMPRSS4 (11748680_a_at) / RFU FAM212B (11763350_a_at) / Fold change /veh FAM212B (11763350_a_at) / RFU PLEKHG5 (11743358_a_at) / Fold change /veh PLEKHG5 (11743358_a_at) / RFU ZSCAN30 (11745921_a_at) / Fold change /veh ZSCAN30 (11745921_a_at) / RFU CMKLR1 (11741424_a_at) / Fold change /veh CMKLR1 (11741424_a_at) / RFU LOC101060620 /// MAPK8IP1 (11723275_at) / Fold change /veh LOC101060620 /// MAPK8IP1 (11723275_at) / RFU SPTSSB (11747773_x_at) / Fold change /veh SPTSSB (11747773_x_at) / RFU PRSS12 (11739890_at) / Fold change /veh PRSS12 (11739890_at) / RFU BIN1 (11741810_x_at) / Fold change /veh BIN1 (11741810_x_at) / RFU WNT11 (11732464_a_at) / Fold change /veh WNT11 (11732464_a_at) / RFU C10orf10 (11716521_a_at) / Fold change /veh C10orf10 (11716521_a_at) / RFU C5orf56 (11738089_at) / Fold change /veh C5orf56 (11738089_at) / RFU CYB561 (11721691_x_at) / Fold change /veh CYB561 (11721691_x_at) / RFU ANKRD19P (11752326_a_at) / Fold change /veh ANKRD19P (11752326_a_at) / RFU OR2T12 /// OR2T33 /// OR2T8 (11738714_s_at) / Fold change /veh OR2T12 /// OR2T33 /// OR2T8 (11738714_s_at) / RFU VCAN (11748164_a_at) / Fold change /veh VCAN (11748164_a_at) / RFU JSRP1 (11732532_at) / Fold change /veh JSRP1 (11732532_at) / RFU KRTAP10-11 (11738290_x_at) / Fold change /veh KRTAP10-11 (11738290_x_at) / RFU MYO3A (11730013_a_at) / Fold change /veh MYO3A (11730013_a_at) / RFU EBF3 (11725865_a_at) / Fold change /veh EBF3 (11725865_a_at) / RFU CAMK2N1 (11719241_x_at) / Fold change /veh CAMK2N1 (11719241_x_at) / RFU C5orf56 (11738088_a_at) / Fold change /veh C5orf56 (11738088_a_at) / RFU OLFML3 (11715873_a_at) / Fold change /veh OLFML3 (11715873_a_at) / RFU LOC100653217 /// NTM (11731650_a_at) / Fold change /veh LOC100653217 /// NTM (11731650_a_at) / RFU MAPK11 (11762145_a_at) / Fold change /veh MAPK11 (11762145_a_at) / RFU FIZ1 (11724087_x_at) / Fold change /veh FIZ1 (11724087_x_at) / RFU OASL (11726364_x_at) / Fold change /veh OASL (11726364_x_at) / RFU SOX15 (11748057_x_at) / Fold change /veh SOX15 (11748057_x_at) / RFU CD79A (11719716_a_at) / Fold change /veh CD79A (11719716_a_at) / RFU HIST1H1D (11736915_at) / Fold change /veh HIST1H1D (11736915_at) / RFU CASKIN2 (11723855_a_at) / Fold change /veh CASKIN2 (11723855_a_at) / RFU LOC730098 (11760151_x_at) / Fold change /veh LOC730098 (11760151_x_at) / RFU OR4N2 (11742367_at) / Fold change /veh OR4N2 (11742367_at) / RFU PRRT2 (11749266_a_at) / Fold change /veh PRRT2 (11749266_a_at) / RFU SNX32 (11753110_a_at) / Fold change /veh SNX32 (11753110_a_at) / RFU CDHR5 (11726645_a_at) / Fold change /veh CDHR5 (11726645_a_at) / RFU RCAN1 (11760418_a_at) / Fold change /veh RCAN1 (11760418_a_at) / RFU FAM167A (11723789_a_at) / Fold change /veh FAM167A (11723789_a_at) / RFU FAM26E (11764081_at) / Fold change /veh FAM26E (11764081_at) / RFU ISYNA1 (11749810_s_at) / Fold change /veh ISYNA1 (11749810_s_at) / RFU ACY1 (11761880_at) / Fold change /veh ACY1 (11761880_at) / RFU 11764098_at / Fold change /veh 11764098_at / RFU SAMD14 (11745864_x_at) / Fold change /veh SAMD14 (11745864_x_at) / RFU NPB (11741838_a_at) / Fold change /veh NPB (11741838_a_at) / RFU TMPRSS6 (11731388_a_at) / Fold change /veh TMPRSS6 (11731388_a_at) / RFU KRTAP10-2 (11738614_at) / Fold change /veh KRTAP10-2 (11738614_at) / RFU ARHGAP8 /// PRR5-ARHGAP8 (11727945_x_at) / Fold change /veh ARHGAP8 /// PRR5-ARHGAP8 (11727945_x_at) / RFU KRTAP5-7 /// NADSYN1 (11734609_at) / Fold change /veh KRTAP5-7 /// NADSYN1 (11734609_at) / RFU RASL12 (11751679_a_at) / Fold change /veh RASL12 (11751679_a_at) / RFU CDKN2B (11736163_a_at) / Fold change /veh CDKN2B (11736163_a_at) / RFU PRF1 (11729649_at) / Fold change /veh PRF1 (11729649_at) / RFU, ZNF638 /// ZNF638-IT1 / Fold change vs veh, ZNF638 /// ZNF638-IT1 / RFU, PANK3 / Fold change vs veh, PANK3 / RFU, SH3YL1 / Fold change vs veh, SH3YL1 / RFU, ZEB2 / Fold change vs veh, ZEB2 / RFU, NRIP1 / Fold change vs veh, NRIP1 / RFU, PTTG1IP / Fold change vs veh, PTTG1IP / RFU, CAPN2 / Fold change vs veh, CAPN2 / RFU, MED14 / Fold change vs veh, MED14 / RFU, SNORA58 / Fold change vs veh, SNORA58 / RFU, C1orf63 / Fold change vs veh, C1orf63 / RFU, LRRFIP1 / Fold change vs veh, LRRFIP1 / RFU, NDUFAF7 / Fold change vs veh, NDUFAF7 / RFU, SLC12A2 / Fold change vs veh, SLC12A2 / RFU, IBTK / Fold change vs veh, IBTK / RFU, ESF1 / Fold change vs veh, ESF1 / Fold change vs veh, TMEM50B / RFU, TAOK1 / Fold change vs veh, TAOK1 / RFU, ACBD3 / Fold change vs veh, ACBD3 / RFU, TMA16 / Fold change vs veh, TMA16 / RFU, RWDD3 / Fold change vs veh, RWDD3 / RFU, BCAT1 / Fold change vs veh, BCAT1 / RFU, EDEM3 / Fold change vs veh, EDEM3 / RFU, TMEM33 / Fold change vs veh, TMEM33 / RFU, WDR75 / Fold change vs veh, WDR75 / RFU, AHCTF1 / Fold change vs veh, AHCTF1 / RFU, TFRC / Fold change vs veh, TFRC / RFU, ZDHHC17 / Fold change vs veh, ZDHHC17 / RFU, NOM1 / Fold change vs veh, NOM1 / RFU, ARL8B / Fold change vs veh, ARL8B / RFU, ZBTB11 / Fold change vs veh, ZBTB11 / RFU, TAMM41 / Fold change vs veh, TAMM41 / RFU, KIAA1704 /// LOC100996395 / Fold change vs veh, KIAA1704 /// LOC100996395 / RFU, ING1 / Fold change vs veh, ING1 / RFU, TRMT61B / Fold change vs veh, TRMT61B / RFU, FUBP3 / Fold change vs veh, FUBP3 / RFU, TP53 / Fold change vs veh, TP53 / RFU, TNKS2 / Fold change vs veh, TNKS2 / RFU, ZFP14 / Fold change vs veh, ZFP14 / RFU, ACTR2 / Fold change vs veh, ACTR2 / RFU, PPP3R1 / Fold change vs veh, PPP3R1 / RFU, PIK3R1 / Fold change vs veh, PIK3R1 / RFU, HNRNPA1 / Fold change vs veh, HNRNPA1 / RFU, RNF170 / Fold change vs veh, RNF170 / RFU, ZNF28 / Fold change vs veh, ZNF28 / RFU, RNGTT / Fold change vs veh, RNGTT / RFU, OGT / Fold change vs veh, OGT / RFU, BRD1 / Fold change vs veh, BRD1 / RFU, MARS / Fold change vs veh, MARS / RFU, ZNF655 / Fold change vs veh, ZNF655 / RFU, FAHD1 / Fold change vs veh, FAHD1 / RFU, BDP1 / Fold change vs veh, BDP1 / RFU, LRRCC1 / Fold change vs veh, LRRCC1 / RFU, ARID1A / Fold change vs veh, ARID1A / RFU, ZNF146 / Fold change vs veh, ZNF146 / RFU, ZNF330 / Fold change vs veh, ZNF330 / RFU, GPN3 / Fold change vs veh, GPN3 / RFU, C9orf123 / Fold change vs veh, C9orf123 / RFU, N4BP2L2 / Fold change vs veh, N4BP2L2 / RFU, ARFIP1 / Fold change vs veh, ARFIP1 / RFU, FAM179B / Fold change vs veh, FAM179B / RFU, BCL10 / Fold change vs veh, BCL10 / RFU, UHRF1BP1L / Fold change vs veh, UHRF1BP1L / RFU, BET1 / Fold change vs veh, BET1 / RFU, CNOT2 / Fold change vs veh, CNOT2 / RFU, ZNF268 / Fold change vs veh, ZNF268 / Fold change vs veh, ZNF507 / RFU, DGCR2 / Fold change vs veh, DGCR2 / RFU, WDSUB1 / Fold change vs veh, WDSUB1 / Fold change vs veh, HSP90B1 /// MIR3652 / RFU, ADSS / Fold change vs veh, ADSS / RFU, GK / Fold change vs veh, GK / RFU, ZNF148 / Fold change vs veh, ZNF148 / RFU, TAF9 / Fold change vs veh, TAF9 / RFU, SLC1A5 / Fold change vs veh, SLC1A5 / RFU, SLMO2 / Fold change vs veh, SLMO2 / RFU, ABCC4 / Fold change vs veh, ABCC4 / RFU, LOC101060439 /// RAP1B / Fold change vs veh, LOC101060439 /// RAP1B / RFU, RFX7 / Fold change vs veh, RFX7 / RFU, GTPBP10 / Fold change vs veh, GTPBP10 / RFU, CNEP1R1 / Fold change vs veh, CNEP1R1 / RFU, BIVM-ERCC5 /// ERCC5 / Fold change vs veh, BIVM-ERCC5 /// ERCC5 / RFU, ILF3 / Fold change vs veh, ILF3 / RFU 11762660_at / Fold change /veh 11762660_at / RFU VCAN (11757783_s_at) / Fold change /veh VCAN (11757783_s_at) / RFU DDX43 (11728927_at) / Fold change /veh DDX43 (11728927_at) / RFU KRT8 (11758188_x_at) / Fold change /veh KRT8 (11758188_x_at) / RFU NKD1 (11759106_at) / Fold change /veh NKD1 (11759106_at) / RFU SRD5A1 (11742802_a_at) / Fold change /veh SRD5A1 (11742802_a_at) / RFU TPSAB1 /// TPSB2 (11721975_s_at) / Fold change /veh TPSAB1 /// TPSB2 (11721975_s_at) / RFU GSTM3 (11746129_a_at) / Fold change /veh GSTM3 (11746129_a_at) / RFU IL23R (11737362_x_at) / Fold change /veh IL23R (11737362_x_at) / RFU TMEM51 (11727254_a_at) / Fold change /veh TMEM51 (11727254_a_at) / RFU PIWIL2 (11732686_x_at) / Fold change /veh PIWIL2 (11732686_x_at) / RFU ORM1 (11744905_x_at) / Fold change /veh ORM1 (11744905_x_at) / RFU CCDC152 (11743942_at) / Fold change /veh CCDC152 (11743942_at) / RFU ECM1 (11717891_a_at) / Fold change /veh ECM1 (11717891_a_at) / RFU IL23R (11748794_a_at) / Fold change /veh IL23R (11748794_a_at) / RFU TNFAIP8L3 (11732012_x_at) / Fold change /veh TNFAIP8L3 (11732012_x_at) / RFU MBOAT4 (11741988_at) / Fold change /veh MBOAT4 (11741988_at) / RFU 11764193_at / Fold change /veh 11764193_at / RFU TMEM53 (11763286_at) / Fold change /veh TMEM53 (11763286_at) / RFU MAGEB2 (11727129_at) / Fold change /veh MAGEB2 (11727129_at) / RFU TMEM200A (11744735_a_at) / Fold change /veh TMEM200A (11744735_a_at) / RFU CCDC152 (11751479_a_at) / Fold change /veh CCDC152 (11751479_a_at) / RFU FAM211A (11726209_a_at) / Fold change /veh FAM211A (11726209_a_at) / RFU RGS16 (11746705_a_at) / Fold change /veh RGS16 (11746705_a_at) / RFU VCAN (11755009_s_at) / Fold change /veh VCAN (11755009_s_at) / RFU RHOB (11743442_s_at) / Fold change /veh RHOB (11743442_s_at) / RFU RGS16 (11720943_a_at) / Fold change /veh RGS16 (11720943_a_at) / RFU RGS16 (11720944_at) / Fold change /veh RGS16 (11720944_at) / RFU, VPS4B / Fold change vs veh, VPS4B / RFU, CREB1 / Fold change vs veh, CREB1 / RFU, DNAJC13 / Fold change vs veh, DNAJC13 / RFU, GNAQ / Fold change vs veh, GNAQ / RFU, CDK5R1 / Fold change vs veh, CDK5R1 / RFU, ZRANB3 / Fold change vs veh, ZRANB3 / RFU, CUL4A / Fold change vs veh, CUL4A / RFU, CCNY / Fold change vs veh, CCNY / RFU, UFL1 / Fold change vs veh, UFL1 / RFU, COG3 / Fold change vs veh, COG3 / RFU, DIAPH2 / Fold change vs veh, DIAPH2 / RFU, SKA2 / Fold change vs veh, SKA2 / RFU, AFF3 / Fold change vs veh, AFF3 / RFU, LMF1 / Fold change vs veh, LMF1 / RFU, IPO11 / Fold change vs veh, IPO11 / RFU, DFFB / Fold change vs veh, DFFB / RFU, FOXP1 / Fold change vs veh, FOXP1 / RFU, CARD8 / Fold change vs veh, CARD8 / RFU, STRN3 / Fold change vs veh, STRN3 / RFU, ADK / Fold change vs veh, ADK / RFU, RASSF2 / Fold change vs veh, RASSF2 / RFU, WIPF1 / Fold change vs veh, WIPF1 / RFU, LARP1B / Fold change vs veh, LARP1B / RFU, RASA1 / Fold change vs veh, RASA1 / RFU, RB1 / Fold change vs veh, RB1 / RFU, PPFIA1 / Fold change vs veh, PPFIA1 / RFU, MAT2A / Fold change vs veh, MAT2A / RFU, CCT5 / Fold change vs veh, CCT5 / RFU, WDR92 / Fold change vs veh, WDR92 / RFU, CUX1 / Fold change vs veh, CUX1 / RFU, TTC7A / Fold change vs veh, TTC7A / RFU, TMEM135 / Fold change vs veh, TMEM135 / RFU, DEPTOR / Fold change vs veh, DEPTOR / RFU, CPM / Fold change vs veh, CPM / RFU, DNAJB6 / Fold change vs veh, DNAJB6 / RFU, CACNA2D3 / Fold change vs veh, CACNA2D3 / RFU, DTX4 / Fold change vs veh, DTX4 / RFU, TFCP2 / Fold change vs veh, TFCP2 / RFU, GMCL1 /// GMCL1P1 / Fold change vs veh, GMCL1 /// GMCL1P1 / RFU, AEBP2 / Fold change vs veh, AEBP2 / RFU, SNHG1 /// SNORD22 /// SNORD25 /// SNORD26 /// SNORD27 /// SNORD28 /// SNORD29 /// SNORD31 / Fold change vs veh, SNHG1 /// SNORD22 /// SNORD25 /// SNORD26 /// SNORD27 /// SNORD28 /// SNORD29 /// SNORD31 / Fold change (Aza/veh), C12orf56 (ProbeSet 11735607_a_at) / Fold change (ACY-1035/veh), C12orf56 (ProbeSet 11735607_a_at) / Fold change (Aza/veh), FGFR1OP (ProbeSet 11751329_s_at) / Fold change (ACY-1035/veh), FGFR1OP (ProbeSet 11751329_s_at) / Fold change (Aza/veh), VPS36 (ProbeSet 11739960_a_at) / Fold change (ACY-1035/veh), VPS36 (ProbeSet 11739960_a_at) / RFU SYPL1 (11715823_x_at) / Fold change /veh SYPL1 (11715823_x_at) / RFU IGFBP7 (11715501_s_at) / Fold change /veh IGFBP7 (11715501_s_at) / RFU REEP3 (11722064_at) / Fold change /veh REEP3 (11722064_at) / RFU IGLL1 (11728026_x_at) / Fold change /veh IGLL1 (11728026_x_at): dose or concentration left out as unconfirmed
Details: ProbeSet 11731461_x_at; LIST D

Nc1ncn([C@@H]2O[C@H](CO)[C@@H](O)[C@H]2O)c(=O)n1 [azacitidine]
Fold change vs veh, CPM: 0.79
